The text below walks through data of article PMC8188729 (Nature, 2020).

The structures appear in SMILES notation. Where “and” joins values, the source holds several entries; their conditions need not be identical. Equal entries are not always repeated.

The CC50 is the concentration that lowers cell viability or growth by half. A higher CC50 goes with lower toxicity to the cells.

The test system of data set [1] is HIV-1 recombinant strains resistant to NRTIs, NNRTIs, INSTIs, PIs or MIs. The format is cell-based.
Data set [2] is described as follows: Cytotoxicity assay. The format is cell-based. The note with it: human, quiescent PBMCs.
Data set [3] in a line: Cytotoxicity assay. The data set is classed as cell-based. To be noted: human, Huh-7 cells.
Data set [4] can be described thus: Cytotoxicity assay. The format is cell-based. The note with it: human, MT-4 cells.
Data set [5] can be described thus: Cytotoxicity assay. The note with it: human, Gal-PC-3 cells. The data set is classed as cell-based.
The nature of data set [6]: Cytotoxicity assay. The data set is classed as cell-based, human. The note with it: human, stimulated PBMCs.
A short description of data set [7]: Cytotoxicity assay. The data set is classed as cell-based. To be noted: human, primary human hepatocytes.
Data set [8] can be described thus: Cytotoxicity assay. The format is cell-based. The note with it: human, monocyte-derived macrophages.
Data set [9] is described as follows: Cytotoxicity assay. The format is cell-based. To be noted: human, primary CD4+ T-lymphocytes.
The nature of data set [10]: Cytotoxicity assay. The format is cell-based. The note with it: human, MRC-5 cells.
Data set [11] in a line: Cytotoxicity assay. To be noted: human, Gal-HepG2 cells. The data set is classed as cell-based.

`C=C(C)[C@@H]1CC[C@]2(C(=O)O)CC[C@]3(C)[C@H](CC[C@@H]4[C@@]5(C)CC[C@H](OC(=O)CC(C)(C)C(=O)O)C(C)(C)[C@@H]5CC[C@]43C)[C@@H]12` [BVM, bevirimat, reference compound]: the Fold resistance in data set [1] was >67.5 (6) and >67.5 (7).

As for `O=C1Nc2ccc(Cl)cc2[C@@](C#CC2CC2)(C(F)(F)F)O1` [EFV, efavirenz, reference compound], the Fold resistance in data set [1] is given as >22.5 (3).

With `COc1cc2c(cc1Cc1cccc(Cl)c1F)c(=O)c(C(=O)O)cn2[C@H](CO)C(C)C` [EVG, elvitegravir, reference compound], the Fold resistance in [1] is >53.8 (3) and >52.9 (3).

As to `COc1ccc(C[C@H](N)C(=O)N[C@H]2[C@@H](O)[C@H](n3cnc4c(N(C)C)ncnc43)O[C@@H]2CO)cc1` [Puromycin, reference compound], the CC50 worked out at 600 ± 1500 nM in [2]; 500 nM in [3]; 200 ± 100 nM in [4]; 400 nM in data set [5]; 200 ± 100 nM in data set [6]; 1600 ± 600 nM in [7]. Besides, the CC50 is 4500 ± 2800 nM in [8], 200 ± 100 nM in [9], 300 nM in data set [10] and 1000 ± 1700 nM in data set [11].
